Measurements taken from patent publication US8013006B2.
Where two headings read alike, the source gives them in different places.

System: HCV replicon
Assay: microbe, parasite or virus in culture
Assay type: cell-based
[1] = Replicon IC50 values are determined by firefly luciferase signal, bicistronic replicon, 2 days, read-out: Replicon IC5Os
[2] = Hepatitis C virus, 48 h, read-out: Replicon IC5Os μM
[3] = Hepatitis C virus, 48 h, read-out: Replicon IC5Os

| Structure (SMILES) | IC50 [1] | other results |
| --- | --- | --- |
| CCn1c(C#Cc2ccc(Cl)cc2)c(C#N)c2ccc(O)cc21 [Compound 187] | 0.5 to 2 µM |  |
| CCn1c(-c2ccc(NS(=O)(=O)CC)cc2)c(C#N)c2ccc(O)cc21 [Compound 190] | 0.5 to 2 µM |  |
| CCn1c(-c2ccc(N(C)S(C)(=O)=O)cc2)c(C#N)c2ccc(O)cc21 [Compound 191] | > 2 µM |  |
| CCn1c(C#Cc2ccc(NC(=O)C3CCCC3)cc2)c(C#N)c2ccc(O)cc21 [Compound 195] | 0.5 to 2 µM |  |
| CCn1c(C#Cc2ccc(OC)cc2)c(C#N)c2ccc(C(F)(F)F)cc21 [Compound 199] | > 2 µM |  |
| CCn1c(C#Cc2cccc(OC)c2)c(C#N)c2ccc(C(F)(F)F)cc21 [Compound 202] | 0.5 to 2 µM |  |
| CCn1c(NC(C)=O)c(C#N)c2ccc(OC)cc21 [Compound 203] | 0.5 to 2 µM |  |
| CCn1c(NC(=O)c2ccccc2)c(C#N)c2ccc(OC)cc21 [Compound 204] |  | IC50 [2]: < 0.5 µM |
| CCn1c(C#Cc2cccc(NS(C)(=O)=O)c2)c(C#N)c2ccc(OC)cc21 [Compound 208] | 0.5 to 2 µM |  |
| CCn1c(C#Cc2cccc(NS(=O)(=O)C(C)C)c2)c(C#N)c2ccc(OC)cc21 [Compound 210] | 0.5 to 2 µM |  |
| CCn1c(C#Cc2cccc(NC(=O)C(C)(C)C)c2)c(C#N)c2ccc(OC)cc21 [Compound 212] | 0.5 to 2 µM |  |
| CCn1c(NC(=O)c2cccc(F)c2)c(C#N)c2ccc(OC)cc21 [Compound 214] | < 0.5 µM |  |
| CCn1c(NC(=O)c2ccc(C#N)cc2)c(C#N)c2ccc(OC)cc21 [Compound 215] | 0.5 to 2 µM |  |
| CCn1c(C#Cc2cccc(N3CCNC3=O)c2)c(C#N)c2ccc(OC)cc21 [Compound 222] | 0.5 to 2 µM |  |
| CCn1c(C#Cc2ccc(N)cc2)c(C#N)c2cc(OC)ccc21 [Compound 223] | 0.5 to 2 µM |  |
| CCn1c(C#Cc2ccc(NC(C)=O)cc2)c(C#N)c2cc(OC)ccc21 [Compound 224] | 0.5 to 2 µM |  |
| CCC(=O)Nc1ccc(C#Cc2c(C#N)c3cc(OC)ccc3n2CC)cc1 [Compound 225] | 0.5 to 2 µM |  |
| CCn1c(C#Cc2ccc(NC(=O)COC)cc2)c(C#N)c2cc(OC)ccc21 [Compound 228] | > 2 µM |  |
| CCOc1ccc(-c2c(C#N)c3cc(OC)ccc3n2CC)cc1 [Compound 229] | > 2 µM |  |
| COc1ccc2c(C#N)c(C#Cc3cccc4ccccc34)[nH]c2c1 [Compound 230] | > 2 µM |  |
| COc1ccc2c(C#N)c(C#Cc3cccc(O)c3)[nH]c2c1 [Compound 231] | > 2 µM |  |
| COc1ccc2c(C#N)c(C#Cc3cccc(Cl)c3)[nH]c2c1 [Compound 232] | > 2 µM |  |

| Structure (SMILES) | IC50 [1] | other results |
| --- | --- | --- |
| COc1ccc2c(C#N)c(C#Cc3ccc(N)cc3)[nH]c2c1 [Compound 234] | > 2 µM |  |
| COc1ccc2c(C#N)c(C#Cc3ccc(N(C)C)cc3)[nH]c2c1 [Compound 235] | 0.5 to 2 µM |  |
| COc1ccc2c(C#N)c(C#Cc3ccc(C)cc3)[nH]c2c1 [Compound 236] | > 2 µM |  |
| COc1cccc(C#Cc2[nH]c3cc(OC)ccc3c2C#N)c1 [Compound 237] | > 2 µM |  |
| COc1ccc2c(C#N)c(C#Cc3ccccc3)[nH]c2c1 [Compound 238] | > 2 µM |  |
| CCn1c(-c2ccc(N)cc2)c(C#N)c2cc(OC)ccc21 [Compound 239] | > 2 µM |  |
| CCn1c(-c2ccc(C(=O)OC)cc2)c(C#N)c2cc(OC)ccc21 [Compound 240] | > 2 µM |  |
| CCn1c(-c2ccc(NC(C)=O)cc2)c(C#N)c2cc(OC)ccc21 [Compound 242] | > 2 µM |  |
| CCn1c(-c2ccc(C(=O)N3CCCC3)cc2)c(C#N)c2cc(OC)ccc21 [Compound 246] | > 2 µM |  |
| CCn1c(-c2ccc(O)cc2)c(C#N)c2ccc(OC)cc21 [Compound 247] | > 2 µM |  |
| CCn1c(-c2ccc(OCCO)cc2)c(C#N)c2ccc(OC)cc21 [Compound 249] | 0.5 to 2 µM |  |
| CCn1c(-c2ccc(SC)cc2)c(C#N)c2ccc(OC)cc21 [Compound 250] | > 2 µM |  |
| COc1ccc2c(C#N)c(-c3ccc4c(c3)OCO4)n(C)c2c1 [Compound 254] | > 2 µM |  |
| CCn1c(-c2ccc(O)cc2)c(C#N)c2ccc(C(F)(F)F)cc21 [Compound 256] | > 2 µM |  |
| CCn1c(-c2ccc(N)cc2)c(C#N)c2ccc(C(F)(F)F)cc21 [Compound 257] | > 2 µM |  |
| CCn1c(-c2cccc(N)c2)c(C#N)c2ccc(C(F)(F)F)cc21 [Compound 258] | > 2 µM |  |
| CCn1c(-c2ccc(N(C)C)cc2)c(C#N)c2ccc(C(F)(F)F)cc21 [Compound 259] | > 2 µM |  |
| CCn1c(-c2ccc3c(c2)OCO3)c(C#N)c2ccc(C(F)(F)F)cc21 [Compound 260] | > 2 µM |  |
| CCn1c(-c2ccc(OCCN3CCN(C)CC3)cc2)c(C#N)c2ccc(OC)cc21 [Compound 263] | 0.5 to 2 µM |  |
| CCn1c(-c2ccc(OCCN3CC[C@H](O)C3)cc2)c(C#N)c2ccc(OC)cc21 [Compound 264] |  | IC50 [2]: 0.5 to 2 µM |
| CCOc1ccc2c(C#N)c(-c3ccc(C(=O)N4CCOCC4)cc3)n(CC)c2c1 [Compound 270] | > 2 µM |  |
| CCn1c(-c2ccc(C(=O)N3CCOCC3)cc2)c(C#N)c2ccc(OC(C)C)cc21 [Compound 271] | 0.5 to 2 µM |  |

| Structure (SMILES) | IC50 [1] | other results |
| --- | --- | --- |
| CCn1c(-c2ccc(NS(=O)(=O)C3CC3)cc2)c(C#N)c2ccc(OC)cc21 [Compound 272] | 0.5 to 2 µM |  |
| CCn1c(-c2ccc(NS(=O)(=O)CCl)cc2)c(C#N)c2ccc(OC)cc21 [Compound 273] | > 2 µM |  |
| CCn1c(-c2ccc(S(=O)(=O)N(C)C)cc2)c(C#N)c2ccc(OC)cc21 [Compound 275] | > 2 µM |  |
| CCn1c(-c2ccc(S(=O)(=O)N3CCOCC3)cc2)c(C#N)c2ccc(OC)cc21 [Compound 276] | > 2 µM |  |
| CCn1c(-c2ccc(S(=O)(=O)NC)cc2)c(C#N)c2ccc(OC)cc21 [Compound 277] | > 2 µM |  |
| CCn1c(-c2ccc(S(N)(=O)=O)cc2)c(C#N)c2ccc(OC)cc21 [Compound 278] | > 2 µM |  |
| CCn1c(-c2cc3ccccc3o2)c(C#N)c2ccc(OC)cc21 [Compound 282] | > 2 µM |  |
| CCn1c(-c2ccc(-c3ccccc3)cc2)c(C#N)c2ccc(OC)cc21 [Compound 283] | > 2 µM |  |
| CCn1c(-c2cc3ccccc3s2)c(C#N)c2ccc(OC)cc21 [Compound 286] | 0.5 to 2 µM |  |
| CCn1c(-c2cccc(NS(=O)(=O)CC)c2)c(C#N)c2ccc(OC)cc21 [Compound 287] | > 2 µM |  |
| CCn1c(-c2cccc(NS(=O)(=O)CCCCl)c2)c(C#N)c2ccc(OC)cc21 [Compound 289] | > 2 µM |  |
| CCn1c(-c2cccc(C(=O)NCCN3CCOCC3)c2)c(C#N)c2ccc(OC)cc21 [Compound 290] | > 2 µM |  |
| CCn1c(-c2cccc(C(N)=O)c2)c(C#N)c2ccc(OC)cc21 [Compound 291] | > 2 µM |  |
| CCNC(=O)c1cccc(-c2c(C#N)c3ccc(OC)cc3n2CC)c1 [Compound 292] | > 2 µM |  |
| CCn1c(-c2cccc(NC(=O)Oc3ccccc3)c2)c(C#N)c2ccc(OC)cc21 [Compound 293] | > 2 µM |  |
| CCOC(=O)Nc1cccc(-c2c(C#N)c3ccc(OC)cc3n2CC)c1 [Compound 294] |  | IC50 [3]: < 0.5 µM |
| CCn1c(-c2cccc(NC(=O)OCC(C)C)c2)c(C#N)c2ccc(OC)cc21 [Compound 296] |  | IC50 [3]: 0.5 to 2 µM |
| CCCOC(=O)Nc1cccc(-c2c(C#N)c3ccc(OC)cc3n2CC)c1 [Compound 297] |  | IC50 [3]: 0.5 to 2 µM |
| CCn1c(-c2cccc(NC(=O)OCCOC)c2)c(C#N)c2ccc(OC)cc21 [Compound 298] |  | IC50 [3]: 0.5 to 2 µM |
| C=CCOC(=O)Nc1cccc(-c2c(C#N)c3ccc(OC)cc3n2CC)c1 [Compound 299] |  | IC50 [3]: 0.5 to 2 µM |
